Data published in patent US20230278972A1, “SUBSTITUTED HALOALKYL SULFONANILIDE HERBICIDES” (FMC Corporation, priority 2020, published 2023).

What was measured:
Format in all cases: in vivo
[1] = system: barnyardgrass (Echinochloa crus-galli); assay: Test A preemergence, barnyardgrass; conditions: Preemergence; for Plant response rating, Barnyardgrass: 0 to 100 scale (0 no effect, 100 complete control)
In short: (§1)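 Seeds are sown in loam mixed with sand and sprayed on the soil surface right after planting for the preemergence test. Postemergence pots are sprayed once seedlings reach 2 to 10 cm at the one- to two-leaf stage. The same surfactant-containing, non-phytotoxic solvent formulation serves both.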

[2] = system: kochia (Bassia scoparia); assay: Test A preemergence, kochia; conditions: Preemergence; for Kochia plant response rating: visual injury on 0 to 100 scale (0 no effect, 100 complete control), approximately 10 days; for Plant response rating, Kochia: 0 to 100 scale (0 no effect, 100 complete control)
In short: as §1

[3] = system: ragweed (common ragweed, Ambrosia artemisiifolia); assay: Test A preemergence, ragweed; conditions: Preemergence; for Ragweed plant response rating: visual injury on 0 to 100 scale (0 no effect, 100 complete control), approximately 10 days; for Plant response rating, Ragweed: 0 to 100 scale (0 no effect, 100 complete control)
In short: as §1

[4] = system: Ryegrass, Italian (Italian ryegrass, Lolium multiflorum); assay: Test A preemergence, Ryegrass, Italian; conditions: Preemergence; for Ryegrass, Italian plant response rating: visual injury on 0 to 100 scale (0 no effect, 100 complete control), approximately 10 days; for Plant response rating, Ryegrass, Italian: 0 to 100 scale (0 no effect, 100 complete control)
In short: as §1

[5] = system: Foxtail, Giant (giant foxtail, Setaria faberi); assay: Test A preemergence, Foxtail, Giant; conditions: Preemergence; for Foxtail, Giant plant response rating: visual injury on 0 to 100 scale (0 no effect, 100 complete control), approximately 10 days; for Plant response rating, Foxtail, Giant: 0 to 100 scale (0 no effect, 100 complete control)
In short: as §1

[6] = system: pigweed (Amaranthus retroflexus); assay: Test A preemergence, pigweed; conditions: for Pigweed plant response rating: visual injury on 0 to 100 scale (0 no effect, 100 complete control), approximately 10 days; for Plant response rating, Pigweed: 0 to 100 scale (0 no effect, 100 complete control)
In short: (§2)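 Compounds in non-phytotoxic solvent with surfactant. Soil: loam/sand. Preemergence via directed soil spray after seeding; postemergence on seedlings 2–10 cm, one- to two-leaf.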

[7] = system: barnyardgrass (Echinochloa crus-galli); assay: Test A postemergence, barnyardgrass; conditions: Postemergence, 0 to 100 scale (0 no effect, 100 complete control); for Plant response rating, Barnyardgrass: 125 g ai/ha; for Barnyardgrass plant response rating: 500 g ai/ha, visual injury vs untreated controls after approx. 10 days
In short: as §2

[8] = system: kochia (Bassia scoparia); assay: Test A postemergence, kochia; conditions: Postemergence, 0 to 100 scale (0 no effect, 100 complete control); for Plant response rating, Kochia: 125 g ai/ha; for Kochia plant response rating: 500 g ai/ha, visual injury vs untreated controls after approx. 10 days
In short: as §1

[9] = system: ragweed (common ragweed, Ambrosia artemisiifolia); assay: Test A postemergence, ragweed; conditions: Postemergence, 0 to 100 scale (0 no effect, 100 complete control); for Plant response rating, Ragweed: 125 g ai/ha; for Ragweed plant response rating: 500 g ai/ha, visual injury vs untreated controls after approx. 10 days
In short: as §1

[10] = system: Ryegrass, Italian (Italian ryegrass, Lolium multiflorum); assay: Test A postemergence, Ryegrass, Italian; conditions: Postemergence, 0 to 100 scale (0 no effect, 100 complete control); for Plant response rating, Ryegrass, Italian: 125 g ai/ha; for Ryegrass, Italian plant response rating: 500 g ai/ha, visual injury vs untreated controls after approx. 10 days
In short: as §1

[11] = system: Foxtail, Giant (giant foxtail, Setaria faberi); assay: Test A postemergence, Foxtail, Giant; conditions: Postemergence, 0 to 100 scale (0 no effect, 100 complete control); for Plant response rating, Foxtail, Giant: 125 g ai/ha; for Foxtail, Giant plant response rating: 500 g ai/ha, visual injury vs untreated controls after approx. 10 days
In short: as §1

[12] = system: pigweed (Amaranthus retroflexus); assay: Test A postemergence, pigweed; conditions: Postemergence, 0 to 100 scale (0 no effect, 100 complete control); for Plant response rating, Pigweed: 125 g ai/ha; for Pigweed plant response rating: 500 g ai/ha, visual injury vs untreated controls after approx. 10 days
In short: as §1

[13] = system: wheat (Triticum aestivum); assay: Test A postemergence, wheat; conditions: Postemergence, 0 to 100 scale (0 no effect, 100 complete control); for Plant response rating, Wheat: 125 g ai/ha; for Wheat plant response rating: 500 g ai/ha, visual injury vs untreated controls after approx. 10 days
In short: as §2

[14] = system: corn (Zea mays); assay: Test A postemergence, corn; conditions: Postemergence, 0 to 100 scale (0 no effect, 100 complete control); for Plant response rating, Corn: 125 g ai/ha; for Corn plant response rating: 500 g ai/ha, visual injury vs untreated controls after approx. 10 days
In short: as §1

[15] = system: blackgrass (Alopecurus myosuroides); assay: Test A postemergence, blackgrass; conditions: Postemergence, 0 to 100 scale (0 no effect, 100 complete control); for Plant response rating, Blackgrass: 125 g ai/ha; for Blackgrass plant response rating: 500 g ai/ha, visual injury vs untreated controls after approx. 10 days
In short: as §1

[16] = system: galium (catchweed bedstraw, Galium aparine); assay: Test A postemergence, galium; conditions: Postemergence, 0 to 100 scale (0 no effect, 100 complete control); for Plant response rating, Galium: 125 g ai/ha; for Galium plant response rating: 500 g ai/ha, visual injury vs untreated controls after approx. 10 days
In short: as §2

[17] = 125 g ai/ha, visual injury, approx. 10 days

| SMILES | Plant response rating, Barnyardgrass ([1]; 500 g ai/ha) | Plant response rating, Kochia ([2]; 500 g ai/ha) | Plant response rating, Ragweed ([3]; 500 g ai/ha) | Plant response rating, Ryegrass, Italian ([4]; 500 g ai/ha) | Plant response rating, Foxtail, Giant ([5]; 500 g ai/ha) | Plant response rating, Pigweed ([6]; 500 g ai/ha) | Barnyardgrass plant response rating [7] | Kochia plant response rating [8] | Plant response rating, Ragweed [9] | Ragweed plant response rating [9] | Plant response rating, Ryegrass, Italian [10] | Ryegrass, Italian plant response rating [10] | Foxtail, Giant plant response rating [11] | Plant response rating, Pigweed [12] | Pigweed plant response rating [12] | Plant response rating, Wheat [13] | Wheat plant response rating [13] | Corn plant response rating [14] | Blackgrass plant response rating [15] | Galium plant response rating [16] | also measured |
| --- | --- | --- | --- | --- | --- | --- | --- | --- | --- | --- | --- | --- | --- | --- | --- | --- | --- | --- | --- | --- | --- |
| Cc1cc(C(F)(F)F)c(C(=O)N(C)C)cc1NS(=O)(=O)C(F)(F)F [Compound 133] | 90 | 0 | 90 | 90 | 90 | 90 | 10 | 20 | 90 | 80 | 30 | 40 | 10 | 60 | 90 | 0 | 50 | 10 | 0 | 90 | Barnyardgrass plant response rating ([1]; 125 g ai/ha, visual injury on 0 to 100 scale (0 no effect, 100 complete control), approximately 10 days): 30; Kochia plant response rating ([2]; 125 g ai/ha): 0; Ragweed plant response rating ([3]; 125 g ai/ha): 20; Ryegrass, Italian plant response rating ([4]; 125 g ai/ha): 20; Foxtail, Giant plant response rating ([5]; 125 g ai/ha): 10; Pigweed plant response rating ([6]; 125 g ai/ha): 30; Plant response rating, Barnyardgrass ([7]; visual injury approx. 10 days): 0; Plant response rating, Kochia ([8]; visual injury approx. 10 days): 20; Plant response rating, Foxtail, Giant ([11]; visual injury approx. 10 days): 0; Plant response rating, Corn ([14]; visual injury approx. 10 days): 10; Plant response rating, Blackgrass ([15]; visual injury approx. 10 days): 0; Plant response rating, Galium ([16]; visual injury approx. 10 days): 80 |
| Cc1cc(Cl)c(NS(=O)(=O)C(F)(F)F)cc1C1=NOC2(CCCCC2)C1 [Compound 221] | 100 | 90 | 90 | 100 | 100 | 100 | 80 | 70 | 70 | 90 | 0 | 60 | 90 | 20 | 80 | 20 | 70 | 40 | 30 | 100 | Plant response rating, Barnyardgrass [1, 17]: 100; Plant response rating, Kochia [2, 17]: 70; Plant response rating, Ragweed [3, 17]: 90; Plant response rating, Ryegrass, Italian [4, 17]: 100; Plant response rating, Foxtail, Giant [5, 17]: 100; Plant response rating, Pigweed [6, 17]: 60; Plant response rating, Barnyardgrass [7]: 30; Plant response rating, Kochia [8]: 60; Plant response rating, Foxtail, Giant [11]: 0; Plant response rating, Corn [14]: 10; Plant response rating, Blackgrass [15]: 10; Plant response rating, Galium [16]: 80 |
| Cc1cc(F)c(C(=O)N2CCC(C#N)CC2)cc1N(S(=O)(=O)C(F)(F)F)S(=O)(=O)C(F)(F)F [Compound 239] | 20 | – | – | – | – | – | 0 | 10 | 0 | 0 | 0 | 0 | 30 | 20 | 50 | 0 | 0 | 10 | 0 | 40 | Plant response rating, Barnyardgrass [1, 17]: 0; Plant response rating, Kochia [2, 17]: 30; Kochia plant response rating ([2]; 500 g ai/ha): 80; Plant response rating, Ragweed [3, 17]: 20; Ragweed plant response rating ([3]; 500 g ai/ha): 70; Plant response rating, Ryegrass, Italian [4, 17]: 0; Ryegrass, Italian plant response rating ([4]; 500 g ai/ha): 30; Plant response rating, Foxtail, Giant [5, 17]: 20; Foxtail, Giant plant response rating ([5]; 500 g ai/ha): 60; Plant response rating, Pigweed [6, 17]: 60; Pigweed plant response rating ([6]; 500 g ai/ha): 90; Plant response rating, Barnyardgrass [7]: 0; Plant response rating, Kochia [8]: 0; Plant response rating, Foxtail, Giant [11]: 0; Plant response rating, Corn [14]: 0; Plant response rating, Blackgrass [15]: 0; Plant response rating, Galium [16]: 0 |
